The target in the test is Fc-fused MET (His-/hFc-tagged human MET ectodomain) (Homo sapiens, UniProt P08581). Briefly: SPR binding kinetics of selected macrocyclic peptides to Fc-fused MET. To be noted: for pKd: KD, 1:1 binding model; for pKd / ka / kd / kd (quoted in text): SPR conditions as E1; for kon: pH 7.4, read-out: ka. A general note: In SPR one partner is held on a chip, and binding of the other changes the refractive index at the surface.

Each structure is given as a SMILES string. pKd: −log10 of the molar value. Where a SMILES comes first, the peptide text is derived from it. Bridges are numbered along the chain shown (N, C = ends).

Usually pKd stands for the Kd on a negative log10 scale, so that one unit is a factor of ten. A low value points to a high Kd. For `CC(C)C[C@@H]1NC(=O)[C@H](Cc2ccc(O)cc2)NC(=O)[C@H](Cc2c[nH]c3ccccc23)NC(=O)[C@H](CO)NC(=O)[C@H](Cc2ccc(O)cc2)NC(=O)CSC[C@@H](C(=O)NCC(N)=O)NC(=O)[C@H](Cc2ccccc2)NC(=O)[C@H](CCC(=O)O)NC(=O)[C@H](Cc2ccccc2)NC(=O)[C@H](CCCCN)NC(=O)[C@H](CCCCN)NC(=O)[C@H](Cc2c[nH]c3ccccc23)NC(=O)[C@H](CCC(N)=O)NC(=O)[C@H](C)NC(=O)[C@H](CCC(N)=O)NC(=O)[C@H](Cc2c[nH]c3ccccc23)NC(=O)[C@H](CC(N)=O)NC1=O` [6-1] ({CH2CO}-YSWYLNWQAQWKKFEFCG-NH2; thioether N-17), the pKd was 6.67, the “ka” value is listed as 2.44 × 10^5 M^–1 s^–1, the kd amounted to 0.0518 s⁻¹ and the “kd (quoted in text)” value is recorded as 51.8 × 10^–3 s^–1. For the same molecule, the kon worked out at 244000 M⁻¹ s⁻¹.
For the molecule `CC(C)C[C@@H]1NC(=O)[C@H]([C@@H](C)O)NC(=O)[C@H](CCCCN)NC(=O)[C@H](C)NC(=O)[C@H](Cc2c[nH]c3ccccc23)NC(=O)[C@H](CCCCN)NC(=O)[C@H](C)NC(=O)[C@H](C(C)C)NC(=O)[C@H](CC(N)=O)NC(=O)[C@H]([C@@H](C)O)NC(=O)[C@H](Cc2c[nH]c3ccccc23)NC(=O)[C@H](CC(N)=O)NC(=O)[C@H](Cc2ccc(O)cc2)NC(=O)[C@H](Cc2ccc(O)cc2)NC(=O)[C@H](Cc2ccccc2)NC(=O)[C@H](Cc2ccc(O)cc2)NC(=O)CSC[C@@H](C(=O)NCC(N)=O)NC1=O` [6-2] ({CH2CO}-YFYYNWTNVAKWAKTLCG-NH2; thioether N-17), the “ka” value is reported as 0.725 × 10^5 M^–1 s^–1, the kd was determined as 0.0074 s⁻¹, the “kd (quoted in text)” value is reported as 7.4 × 10^–3 s^–1 and the kon amounted to 72500 M⁻¹ s⁻¹. Also, the “fold slower kd compared to 6–1” value (ratio of SPR kd values) is listed as 7 fold.
Take `C[C@@H]1NC(=O)CNC(=O)[C@H](Cc2ccc(O)cc2)NC(=O)[C@H](CCC(=O)O)NC(=O)[C@H](CCCCN)NC(=O)[C@H](Cc2c[nH]c3ccccc23)NC(=O)[C@H](CCCNC(=N)N)NC(=O)CNC(=O)[C@H](CC(=O)O)NC(=O)[C@H](Cc2ccccc2)NC(=O)[C@H]([C@@H](C)O)NC(=O)[C@H](Cc2ccc(O)cc2)NC(=O)[C@H](Cc2ccc(O)cc2)NC(=O)[C@H](Cc2c[nH]c3ccccc23)NC(=O)[C@H](Cc2ccc(O)cc2)NC(=O)CSC[C@@H](C(=O)NCC(N)=O)NC(=O)[C@H](C)NC1=O` [8-1] ({CH2CO}-YWYYTFDGRWKEYGAACG-NH2; thioether N-17): the pKd was 7.51, the “ka” value is 13.8 × 10^5 M^–1 s^–1, the kd is 0.0427 s⁻¹ and the “kd (quoted in text)” value is recorded as 42.7 × 10^–3 s^–1. Further, the kon is 1.38e+06 M⁻¹ s⁻¹.
Take `CC(C)[C@@H]1NC(=O)[C@H](CCCCN)NC(=O)[C@H](CC(=O)O)NC(=O)CNC(=O)[C@H](CC(=O)O)NC(=O)[C@H](CCCNC(=N)N)NC(=O)CNC(=O)[C@H](CC(N)=O)NC(=O)[C@H](Cc2c[nH]c3ccccc23)NC(=O)[C@H](Cc2c[nH]cn2)NC(=O)[C@H](Cc2ccc(O)cc2)NC(=O)[C@H](Cc2ccc(O)cc2)NC(=O)CSC[C@@H](C(=O)NCC(N)=O)NC(=O)[C@H](C(C)C)NC(=O)[C@H](C(C)C)NC(=O)[C@H](Cc2c[nH]c3ccccc23)NC(=O)[C@H](CCC(=O)O)NC1=O` [8-2] ({CH2CO}-YYHWNGRDGDKVEWVVCG-NH2; thioether N-17): the negative-log Kd (pKd) was 7.67, the kd was 0.0103 s⁻¹, the “kd (quoted in text)” value is given as ~10 × 10^–3 s^–1 and the kon was 475000 M⁻¹ s⁻¹. The “kd (quoted in text)” value (listed as 8–2) was 10.3 × 10^–3 s^–1. Moreover, the “fold slower kd than other species of the E8 library” value (other species kd = ∼50 × 10^–3 s^–1) is listed as 5 fold.
For `C[C@@H]1NC(=O)[C@H](C)NC(=O)[C@H](CC(=O)O)NC(=O)[C@H](Cc2ccc(O)cc2)NC(=O)[C@H](CCC(=O)O)NC(=O)[C@H](CCC(=O)O)NC(=O)[C@H](Cc2c[nH]c3ccccc23)NC(=O)[C@H](CCCNC(=N)N)NC(=O)CNC(=O)[C@H](CC(=O)O)NC(=O)[C@H](Cc2ccccc2)NC(=O)[C@H]([C@@H](C)O)NC(=O)[C@H](Cc2ccc(O)cc2)NC(=O)[C@H](Cc2ccc(O)cc2)NC(=O)[C@H](Cc2c[nH]c3ccccc23)NC(=O)[C@H](Cc2ccc(O)cc2)NC(=O)CSC[C@@H](C(=O)NCC(N)=O)NC1=O` [8-3] ({CH2CO}-YWYYTFDGRWEEYDAACG-NH2; thioether N-17), the “ka” value is reported as 2.33 × 10^5 M^–1 s^–1, the kd came out at 0.0464 s⁻¹, the “kd (quoted in text)” value is 46.4 × 10^–3 s^–1 and the kon turned out to be 233000 M⁻¹ s⁻¹.
For `CC(C)[C@@H]1NC(=O)[C@H](CO)NC(=O)CNC(=O)[C@H](CO)NC(=O)[C@H](Cc2c[nH]c3ccccc23)NC(=O)[C@H](CO)NC(=O)[C@H](Cc2ccc(O)cc2)NC(=O)[C@H](Cc2ccc(O)cc2)NC(=O)CSC[C@@H](C(=O)NCC(N)=O)NC(=O)[C@H](CO)NC(=O)[C@H](CC(N)=O)NC(=O)[C@H](Cc2c[nH]c3ccccc23)NC(=O)[C@H](CCCCN)NC(=O)[C@H](C(C)C)NC(=O)[C@H](CO)NC(=O)[C@H](CCC(=O)O)NC(=O)[C@H](CO)NC1=O` [10-1] ({CH2CO}-YYSWSGSVSESVKWNSCG-NH2; thioether N-17), the pKd is 8.00, the kd was 0.00878 s⁻¹, the “kd (quoted in text)” value is on record as ~10 × 10^–3 s^–1 and the kon was found to be 871000 M⁻¹ s⁻¹.
With `CC[C@H](C)[C@@H]1NC(=O)[C@H](Cc2ccc(O)cc2)NC(=O)CSC[C@@H](C(=O)NCC(N)=O)NC(=O)[C@H](CS)NC(=O)[C@H](CC(N)=O)NC(=O)[C@H](CS)NC(=O)[C@H](CC(N)=O)NC(=O)[C@H](Cc2c[nH]c3ccccc23)NC(=O)[C@H](CC(C)C)NC(=O)[C@H](CCCCN)NC(=O)[C@H](CO)NC(=O)[C@H](CC(N)=O)NC(=O)[C@H](Cc2ccccc2)NC(=O)[C@H](CCCNC(=N)N)NC(=O)[C@H](CC(N)=O)NC(=O)[C@H](Cc2c[nH]c3ccccc23)NC(=O)[C@H](CCC(=O)O)NC1=O` [10-4] ({CH2CO}-YIEWNRFNSKLWNCNCCG-NH2; thioether N-17), the kd worked out at 0.00809 s⁻¹ and the kon is 26300 M⁻¹ s⁻¹.
`CC(C)C[C@@H]1NC(=O)[C@H](Cc2ccc(O)cc2)NC(=O)CSC[C@@H](C(=O)NCC(N)=O)NC(=O)[C@H](CC(=O)O)NC(=O)[C@H](C(C)C)NC(=O)[C@H](Cc2ccc(O)cc2)NC(=O)[C@H](C(C)C)NC(=O)[C@H](Cc2c[nH]c3ccccc23)NC(=O)[C@H](CC(=O)O)NC(=O)[C@H](CCCCN)NC(=O)[C@H](CC(N)=O)NC(=O)[C@H](CC(=O)O)NC(=O)[C@H](Cc2ccc(O)cc2)NC(=O)[C@H](CCCCN)NC(=O)[C@H](Cc2c[nH]cn2)NC(=O)[C@H](Cc2c[nH]c3ccccc23)NC(=O)[C@H](CC(C)C)NC1=O` [10-5] ({CH2CO}-YLLWHKYDNKDWVYVDCG-NH2; thioether N-17): the kd was found to be 0.00694 s⁻¹ and the kon stood at 356000 M⁻¹ s⁻¹.
For `CC(C)C[C@@H]1NC(=O)[C@H](Cc2ccc(O)cc2)NC(=O)[C@H](CCC(=O)O)NC(=O)[C@H](CC(=O)O)NC(=O)[C@H](CCCNC(=N)N)NC(=O)[C@H](Cc2ccc(O)cc2)NC(=O)[C@H](Cc2c[nH]c3ccccc23)NC(=O)[C@H](Cc2ccc(O)cc2)NC(=O)[C@H](Cc2ccc(O)cc2)NC(=O)[C@H](Cc2c[nH]c3ccccc23)NC(=O)[C@H](Cc2c[nH]c3ccccc23)NC(=O)[C@H](Cc2ccc(O)cc2)NC(=O)CSC[C@@H](C(=O)NCC(N)=O)NC(=O)[C@H](CCCNC(=N)N)NC(=O)[C@H]([C@@H](C)O)NC(=O)[C@H](CCCNC(=N)N)NC(=O)[C@H](Cc2c[nH]c3ccccc23)NC1=O` [10-6] ({CH2CO}-YWWYYWYRDEYLWRTRCG-NH2; thioether N-17), in that order: 0.00489 s⁻¹ and 22300 M⁻¹ s⁻¹.
As to `CC[C@H](C)[C@@H]1NC(=O)[C@H](Cc2ccc(O)cc2)NC(=O)CSC[C@@H](C(=O)NCC(N)=O)NC(=O)[C@@H]2CCCN2C(=O)[C@H](CCCNC(=N)N)NC(=O)[C@H](C(C)C)NC(=O)[C@H](Cc2ccccc2)NC(=O)[C@H](Cc2c[nH]c3ccccc23)NC(=O)[C@H](CC(=O)O)NC(=O)[C@H](CCCCN)NC(=O)[C@H](CO)NC(=O)[C@H](C)NC(=O)[C@H](Cc2ccc(O)cc2)NC(=O)[C@H](C)NC(=O)[C@H](Cc2ccccc2)NC(=O)[C@H](Cc2c[nH]c3ccccc23)NC(=O)[C@H](CO)NC1=O` [12-1] ({CH2CO}-YISWFAYASKDWFVRPCG-NH2; thioether N-17), the kd stood at 0.00254 s⁻¹, the “kd (quoted in text)” value is recorded as 2.54 × 10^–3 s^–1 and the kon turned out to be 79500 M⁻¹ s⁻¹.
On to `CC(C)[C@@H]1NC(=O)[C@H](CC(N)=O)NC(=O)CNC(=O)[C@H](CO)NC(=O)[C@H](Cc2c[nH]c3ccccc23)NC(=O)[C@H](CO)NC(=O)[C@H](Cc2ccc(O)cc2)NC(=O)[C@H](Cc2ccc(O)cc2)NC(=O)CSC[C@@H](C(=O)NCC(N)=O)NC(=O)[C@H](CO)NC(=O)[C@H](CC(N)=O)NC(=O)[C@H](Cc2c[nH]c3ccccc23)NC(=O)[C@H](CCCCN)NC(=O)[C@H](C(C)C)NC(=O)[C@H](CO)NC(=O)[C@H](CCC(=O)O)NC(=O)[C@H](CO)NC1=O` [12-2] ({CH2CO}-YYSWSGNVSESVKWNSCG-NH2; thioether N-17), for which the kd is 0.00413 s⁻¹ and the kon was 476000 M⁻¹ s⁻¹.
In the case of `CC[C@H](C)[C@@H]1NC(=O)[C@H](CCCCN)NC(=O)[C@@H](NC(=O)[C@H](CCC(=O)O)NC(=O)[C@@H](NC(=O)[C@H](Cc2c[nH]c3ccccc23)NC(=O)[C@H](CC(C)C)NC(=O)[C@@H]2CSCC(=O)N[C@@H](Cc3ccc(O)cc3)C(=O)N[C@@H](CC(N)=O)C(=O)N2)C(C)C)CSSC[C@@H](C(=O)NCC(N)=O)NC(=O)[C@H](CCCNC(=N)N)NC(=O)CNC(=O)[C@H](CC(N)=O)NC(=O)[C@@H]2CCCN2C(=O)[C@H](CC(C)C)NC(=O)[C@H](C(C)C)NC1=O` [12-4] ({CH2CO}-YNCLWVECKIVLPNGRCG-NH2; disulfide 8-17; thioether N-3), the kd worked out at 0.00721 s⁻¹, the “kd (quoted in text)” value is reported as 7.21 × 10^–3 s^–1 and the kon was determined as 456000 M⁻¹ s⁻¹.

The record behind these values is PMC11950852, “Diversity Scale of Library Matters: Impact of mRNA Library Diversity Scales on the Discovery of Macrocyclic Peptides Targeting a Protein by the RaPID System” (ACS Central Science, 2025).
